{"source": "paper PMC8129133", "about": "“Polymer-free corticosteroid dimer implants for controlled and sustained drug delivery” (Nature Communications, 2021)", "assay": "Shelf-life stability study (polarized light microscopy)", "assay_type": "physicochemical", "conditions": "extruded amorphous implants", "experimental": "Extruded Dex-TEG-Dex implants were assessed for shelf-life stability. Melt extruded Dex-TEG-Dex materials were packaged in the lumen of 30 G needles (BD) and stored in an anhydrous pouch containing desiccant. Samples were aged at 25 °C, 40 °C, and 70 °C for up to 4 months, corresponding to real-time aging of 126 days (25 °C, 4 months), 356 days (40 °C, 4 months), and 2851 days (70 °C, 4 months). At specified time points, samples were removed from their packaging and assessed by polarized light microscopy as outlined below.\nSamples were placed on glass slides, cross-sectioned as needed and imaged with a polarizing light microscope (SM-LUX-POL, Leitz) equipped with a Leica EC4 digital camera (Leica) using LAS EZ v.3.2.0 software (Leica). Additionally, a λ-plate compensator was used to assist in evaluation of features with weak birefringence.", "data": [{"smiles": "C[C@@H]1C[C@H]2[C@@H]3CCC4=CC(=O)C=C[C@]4(C)[C@@]3(F)[C@@H](O)C[C@]2(C)[C@@]1(O)C(=O)COC(=O)OCCOCCOCCOC(=O)OCC(=O)[C@@]1(O)[C@H](C)C[C@H]2[C@@H]3CCC4=CC(=O)C=C[C@]4(C)[C@@]3(F)[C@@H](O)C[C@@]21C", "note": "[Dex-TEG-Dex]", "values": [{"measurement": "crystallinity after shelf-life storage", "result": "no evidence of crystallinity"}]}]}
